Data as given in patent publication US20240415989A1, “RADIOLABELED COMPOUND, AND PRECURSOR COMPOUND THEREOF, PREPARATION METHOD THEREFOR, AND APPLICATION THEREOF” (priority 2021, published 2024).

Assays:
[1] = Lipid-water distribution coefficient (n-octanol/deionized water); type: physicochemical
Description: Three 5 ml centrifuge tubes were taken, and numbered as A-(1), A-(2) and A-(3), respectively. 0.5 ml of n-octanol, 0.485 ml of deionized water and 0.25 ml of freshly prepared ^68Ga-DOTA-ibandronic acid with about 0.5 mci were added to each tube, and the centrifuge tubes were shaken by a vortex mixer for 20 minutes, then centrifuged at 2000 r/min for 5 minutes, from which 0.1 ml of upper liquid (organic phase) was respectively collected into 3 corresponding test tubes (numbered as B-(1), B-(2), B-(3), respectively), and 0.1 ml of lower liquid (aqueous phase) was respectively collected into 3 corresponding test tubes (numbered as C-(1), C-(2), C-(3), respectively). The total radioactivity count of the organic phase and that of the aqueous phase were measured by γ counter, respectively, and the lipid-water distribution coefficient lgP was calculated by formula.

[2] = In vitro stability in normal saline (radiochemical purity by TLC); type: physicochemical
Description: Four EP tubes were taken and marked as numbers (1) to (4) in sequence, in which 0.1 ml of normal saline was added to numbers (1) and (2), respectively, 0.1 ml of fresh human serum diluted 10 times was added to numbers (3) and (4), respectively, and then 1.0 mci of freshly prepared ^68Ga-DOTA-ibandronic acid was added to these 4 tubes, respectively. Numbers (1) and (3) were placed at room temperature (25±2° C.) and numbers (2) and (4) were placed in a 37° C. metal bath for incubation. The radiochemical purity values of numbers (1) to (4) were measured using a thin layer paper chromatography (TLC) at 10 min, 30 min, 1 h, 2 h, 3 h, 4 h, respectively.

[3] = system: plasma protein; type: in vitro ADME; conditions: human
Description: 1 mL of fresh human plasma anticoagulated with heparin was taken for later use. Three EP tubes were taken and numbered as A-(1), A-(2), and A-(3), and were each added with 0.1 ml of fresh human plasma and 0.25 ml of freshly prepared ^68Ga-DOTA-ibandronic acid with about 0.5 mci. Then they were incubated in a metal bath at 37° C. for 30 minutes. Three 5 ml centrifuge tubes were taken and numbered as B-(1), B-(2), and B-(3). The incubated solutions were transferred to the corresponding centrifuge tubes, respectively. Then 1 ml of 25% trichloroacetic acid solution was added to each centrifuge tube, mixed thoroughly, then centrifuged at 2000 r/min for 5 minutes. The supernatants were respectively collected into 3 corresponding test tubes (numbered as C-(1), C-(2), C-(3), respectively). The centrifugation and supernatant collection were repeated 3 times. The total radioactivity count of the precipitations in the centrifuge tubes and that of the supernatants in the test tubes were measured by a γ counter, respectively, and the plasma protein binding rate (PPB) was calculated.

[4] = system: PC-3, H1975, MDA-MB-231 bone metastasis models; test: Therapeutic effect on tumor-bearing mice, free movement pain behavior scoring; type: in vivo, nude mice
Description: In this experimental example, the therapeutic effects of ^177Lu-DOTA-ibandronic acid of the present disclosure on tumor-bearing mice (PC-3, H1975, MDA-MB-231 bone metastasis models) were investigated. The ^177Lu-DOTA-ibandronic acid used in this experimental example was prepared according to the method of Example 6.
(1) Establishment of tumor-bearing mouse models: 24 SPF male nude mice and 12 SPF female nude mice were taken, and anesthetized with isoflurane. Then the skin around the left knee joint was disinfected, and the left hind limb was bent. An insulin needle (29G needle) was inserted into the tibia vertically from concave point of the articular fossa of the tibia, slowly rotated and inserted into the medullary cavity, to inject 25 μl of cell culture (approximately 2×10^6) of PC-3 (12 males), H1975 (12 males), and MDA-MB-231 (12 females). Then disinfection was carried out, and the holes were sealed with sterile bone wax. The animals were placed on a 37° C. hot-plate for rewarming. After resuscitation, they were returned to the cage and continued to be raised.
(2) Testing of tumor-bearing mouse models: After 4 weeks of inoculation, 36 nude mice were scanned using Micro-CT, respectively.
(3) Methods of different treatments and grouping: The 36 successfully modelled tumor-bearing mice were randomly divided into 4 groups. Among them, 2 groups were injected with ^177Lu-DOTA-ibandronic acid with low and high radioactivity (100 μCi, 500 μCi) into the tail vein, respectively, 3 animals in each group; and the animals in the blank control groups were injected with normal saline, and divided into a small volume group and a large volume group (10 μl, 50 μl), 3 animals in each group.
(4) Detection and results of treatment effect: Free movement pain behavior scoring was carried out on days 0, 7, 14, 21, 28, and 35, and used as the main indicator of bone pain relief in the tumor-bearing mice. At the corresponding time points, the tumor-bearing mice were placed in a transparent smooth flat-bottomed plastic box. […]

[5] = high activity 500 μCi, compared with all groups

Row | SMILES | lipid-water distribution coefficient lgP [1] | Radiochemical purity ([2]; 37° C., 10 min) | Radiochemical purity ([2]; 37° C., 30 min) | Radiochemical purity ([2]; 37° C., 1 h) | Radiochemical purity ([2]; 37° C., 2 h) | Radiochemical purity ([2]; 37° C., 3 h) | Radiochemical purity ([2]; 37° C., 4 h) | Radiochemical purity ([2]; room temperature, 10 min) | Radiochemical purity ([2]; room temperature, 30 min) | Radiochemical purity ([2]; room temperature, 1 h) | Radiochemical purity ([2]; room temperature, 2 h) | Radiochemical purity ([2]; room temperature, 3 h) | Radiochemical purity ([2]; room temperature, 4 h) | plasma protein binding rate (PPB) [3] | therapeutic efficacy versus control group ([4]; different doses (100 μCi, 500 μCi) versus normal saline) | bone pain relief [4, 5] | survival rate within 5 weeks of administration [4, 5]
1 | CN(CCCCNC(=O)CN1CCN(CC(=O)O)CCN(CC(=O)O)CCN(CC(=O)O)CC1)CCC(O)(P(=O)(O)O)P(=O)(O)O.[68Ga] [^68Ga-DOTA-ibandronic acid] | −2.33 | 99% | 96% | 96% | 92% | 90% | 87% | 98% | 97% | 95% | 95% | 95% | 93% | 81% |  |  | 
2 | CN(CCCCNC(=O)CN1CCN(CC(=O)O)CCN(CC(=O)O)CCN(CC(=O)O)CC1)CCC(O)(P(=O)(O)O)P(=O)(O)O.[177Lu] [^177Lu-DOTA-ibandronic acid] |  |  |  |  |  |  |  |  |  |  |  |  |  |  | higher than that of the corresponding control group | relieved to the greatest extent | relatively highest
